“Also recorded” adds a separate entry of the source. Marks after values point to notes of the source that are not given here.
Columns and labels:
[1] = system: diaphragm muscle of mdx mice; assay: Diaphragm histology (centralized nuclei, fiber size and density, fibrosis), mdx mice; type: in vivo, mouse; settings: prednisone 1 mg/kg QD s.q., 22 weeks
Experimental: Analysis of centralized nuclei. One marker of degeneration is the amount of compensatory regeneration occurring within the muscle. Since newly regenerating fibers have centrally located nuclei, the percentage of fibers with centralized nuclei (CN) from the diaphragm of each animal was determined (FIG. 2A).
Analysis of fiber size and density. The cross-sectional area of regenerating or recently regenerated fibers is expected to be smaller than that of mature muscle fibers. The cross sectional area of approximately 50 muscle fibers was measured from each mouse (600 fibers/group).
Analysis of fibrosis. Fibrosis was measured as the percentage of […] area/total area in Masson's trichrome stained sections.

[2] = system: mdx mouse model of Duchenne Muscular Dystrophy; assay: Whole Body Plethysmography respiration monitoring, mdx mice, 22 weeks daily s.q. dosing; type: in vivo
Experimental: Animals. Male C57BL/10SnJ, hereafter referred to as wild-type (WT), and male mdx C57B1/10ScSn-Dmdmdx mice were used in the study. All protocols were approved by the University of Michigan (UM) UCUCA and all studies were performed in facilities run by the University of Michigan Unit of Laboratory Animal Medicine. […] Mice were purchased from Jackson Laboratories and aged in UM facilities. All ages given are ±2 weeks. Mice were randomized into groups upon receipt from Jackson Laboratories in order to minimize the need for additional cages. […] All compounds were administered subcutaneously.
Respiration was monitored using a Buxco Whole Body Plethysmography (WBP) monitoring chambers for mouse Cat. No. PLY4211 (Buxco Research Systems, Wilmington, N.C.) according to the manufacturer's instructions. In this protocol animals are unrestrained and un-anesthetized. Monitoring was performed in the room in which the animals were housed. The mice were monitored for 2 months prior to initiation of treatment to acclimate the mice to the procedure and establish baseline respiratory parameters done with the last weeks reading prior to initiation of dosing. Mice were randomized into groups based on tidal volume measurements. Upon initiation of dosing, mice were monitored every 2 weeks. Mice were placed in monitoring chambers and allowed to acclimate for 15 minutes prior to recording respiratory parameters. Respiration was then monitored for 10 minutes. Each mouse was monitored in the same chamber for each reading throughout the study to minimize variability.
During acclimation and measurements, the room door was shut and technician movement and room noise was kept to a minimum to allow for complete acclimation. […] Chambers were wiped clean between animals. Data was monitored and collected using FinePoint software (Cat. No. SFT4000) purchased from Buxco Research Systems (Wilmington, N.C.). […] Comparisons between groups of daily, every other day or weekly dosed animals were done by one-way ANOVA using the Neumann-Keuls post-hoc test. Significance was P<0.05. N=10-12 animals per group.
Abbreviations used include the following (units): F, respiration rate (breaths/minute), TV, tidal volume, (ml); TV/BWT, ratio of tidal volume to body weight, (mL/kg); MV, minute volume, (mL/min); Penh, enhanced pause, (no units); Rpef, the ratio of the time from start of expiration to peak expiratory flow to Te (no units); PIF, peak inspiratory flow, (mL sec); PEF, peak expiratory flow, (mL/sec); Te, expiratory time (sec); Ti, inspiratory time, (sec); Tr, relaxation time, (sec).
Respiration was monitored every 2 weeks by WBP.

[3] = Table 3, prednisone 1 mg/kg daily, 22 wks, mean ± S.D.
[4] = prednisone 1 mg/kg QD s.q., 22 weeks, mean ± S.D.

C[C@]12C=CC(=O)C=C1CC[C@@H]1[C@@H]2C(=O)C[C@@]2(C)[C@H]1CC[C@]2(O)C(=O)CO [Prednisone, prednisone]
percentage of fibers with centralized nuclei (CN), diaphragm [1]: nearly the same percentage of fibers with CN as the mdx saline group; also recorded: higher percentage of muscle fibers in the regeneration process than in the P-188 treated groups
TV, 22 wks [2, 3]: 0.332 ± 0.021 mL
TV/BW, 22 wks [2, 3]: 9.9 ± 1.2 mL/kg
increase in TV/BW compared with mdx saline (cause) ([2]; prednisone 1 mg/kg QD s.q., 22 weeks): due to a loss of body weight and not due to improvement in TV
F (respiration rate) [2, 4]: 328 ± 30 breaths/min
MV (minute volume) [2, 4]: 107 ± 11^b ml/min
PEF (peak expiratory flow) [2, 4]: 4.2 ± 0.4^b mL/sec
PIF (peak inspiratory flow) [2, 4]: 8.3 ± 0.8^c mL/sec
Penh (enhanced pause) [2, 4]: 0.393 ± 0.080
Rpef [2, 4]: 0.496 ± 0.085
TV (tidal volume) [2, 4]: 0.332 ± 0.021^c mL
Ti (inspiratory time) [2, 4]: 0.068 ± 0.006 s
Tr (relaxation time) [2, 4]: 0.094 ± 0.018 s

Reference: patent US20150190421A1, “POLOXAMERS FOR THE IMPROVEMENT OF RESPIRATORY FUNCTION” (PHRIXUS PHARMACEUTICALS, INC., priority 2012, published 2015)
